Some test systems named below: SK-OV-3; A498; ACHN; MDA-N; SF-268; PC-3; KM12; IGROV-1; HCT-15; NCI/ADR-RES; EKVX; MDA-MB-435; K562; SN12C; HCC 2998; HL-60; UACC-257; Hs-578T; SNB-75; DMS-273.
What all share (test): NCI tumour cell line growth inhibition, 48 h

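All cell lines were grown in 96-well plates and treated with compound for 48 hours. GI50 = concentration required for 50% inhibition of growth.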 Activity calls are given as the source filed them. Cut-off read from the data, not from the text of the source: active = GI50 up to about 1.1 µM and inactive = higher.

For the molecule `CC(C)(CN1CCCCC1)C(/C=C/c1ccccc1)=N\NC(=O)N/N=C(/C=C/c1ccccc1)C(C)(C)CN1CCCCC1`, the GI50 was 3.32 µM (inactive) in the test with SK-OV-3; 1.5 µM (inactive) with A498; 3.32 µM (inactive) with ACHN; 1.63 µM (inactive) in the test on MDA-N; 3.24 µM (inactive) with SF-268; 1.97 µM (inactive) in the test on PC-3. Further, the GI50 was 2 µM (inactive) with KM12; 2.51 µM (inactive) with IGROV-1; 1.37 µM with HCT-15; 1.74 µM (inactive) in the test with NCI/ADR-RES; 6.84 µM (inactive) with EKVX; 1.51 µM (inactive) with MDA-MB-435. The GI50 with K562 is 1.19 µM (inactive); with SN12C, 1.89 µM (inactive); in the test with HCC 2998 it was 0.543 µM (active); in the test with HL-60, 1.08 µM (active); with UACC-257 it was 1.71 µM (inactive); with Hs-578T it was 2.67 µM (inactive). In addition, in the test with SNB-75, the GI50 is 1.38 µM (inactive).

For `CCOC(CN(C)C(=O)Nc1cccc2ccccc12)OCC`, the GI50 in the test with SK-OV-3, in the test with A498, in the test with ACHN, in the test on MDA-N, in the test on SF-268 and in the test on PC-3 was > 10 µM (inactive) throughout. The GI50 is > 10 µM (inactive) in the test on KM12; > 10 µM (inactive) with IGROV-1; over 10 µM with HCT-15; > 10 µM (inactive) in the test with NCI/ADR-RES; > 10 µM (inactive) in the test on EKVX; > 10 µM (inactive) with MDA-MB-435. For the same molecule, the GI50 with K562, with SN12C, in the test on HCC 2998, in the test on HL-60, with UACC-257 and with Hs-578T was > 10 µM (inactive) throughout. The GI50 in the test on SNB-75 is > 10 µM (inactive).

As to `O=C1C(c2ccccc2)=C(c2ccccc2)C(c2ccc(Cc3ccc(C4=C(c5ccccc5)C(=O)C(c5ccccc5)=C4c4ccccc4)cc3)cc2)=C1c1ccccc1`, the GI50 with SK-OV-3, in the test on A498, in the test with SF-268, with KM12, in the test on DMS-273 and in the test with IGROV-1 was > 100 µM (inactive) throughout. In addition, the GI50 with HCT-15 is over 100 µM; with EKVX, > 100 µM (inactive); with K562, > 100 µM (inactive); in the test on HL-60, > 100 µM (inactive); in the test with UACC-257, 64.9 µM (inactive); with SNB-75, > 100 µM (inactive).

Turning to `CCOC(=O)C(NC(=O)c1ccccc1)(N1CCN(c2cc3c(cc2F)c(=O)c(C(=O)O)cn3CC)CC1)C(F)(F)F` (stereo not given), the GI50 in the test with SK-OV-3 is 34.3 µM (inactive); in the test on A498, 24.5 µM (inactive); in the test with ACHN, 33.1 µM (inactive); in the test with MDA-N, 37.7 µM (inactive); in the test on SF-268, 40.9 µM (inactive); in the test on PC-3, 31.3 µM (inactive). Moreover, the GI50 was 25.9 µM (inactive) in the test with KM12; 38.4 µM (inactive) in the test on IGROV-1; 24.4 µM in the test on HCT-15; 41.4 µM (inactive) in the test on NCI/ADR-RES; 17.1 µM (inactive) with EKVX; 29.2 µM (inactive) in the test with MDA-MB-435. Moreover, the GI50 in the test on K562 was 31.8 µM (inactive); in the test on SN12C it was 32.9 µM (inactive); in the test with HCC 2998 it was 52.2 µM (inactive); in the test with HL-60, 20 µM (inactive); in the test with UACC-257, 12.9 µM (inactive); in the test on Hs-578T, 43.3 µM (inactive). In addition, the GI50 in the test on SNB-75 is 26.1 µM (inactive).

With `COC(=O)C(=O)C(C#N)c1ccc(Cl)c(Cl)c1` (stereo not given), the GI50 with SK-OV-3, in the test with ACHN, in the test with SF-268, in the test on KM12, with DMS-273 and in the test on IGROV-1 was > 100 µM (inactive) throughout. Further, the GI50 in the test with HCT-15 was over 100 µM; in the test with EKVX it was 64.3 µM (inactive); with K562, > 100 µM (inactive); with SN12C it was > 100 µM (inactive); in the test with HL-60, > 100 µM (inactive); in the test on UACC-257, > 100 µM (inactive). Besides, in the test with SNB-75, the GI50 is 80 µM (inactive).

With `C=C1C(=O)CCC1C(=O)O` (stereo not given), the GI50 with SK-OV-3, in the test on A498, in the test with ACHN, with MDA-N, in the test on SF-268 and in the test on PC-3 was > 100 µM (inactive) in each case. The GI50 was > 100 µM (inactive) in the test on KM12; > 100 µM (inactive) in the test with IGROV-1; over 100 µM with HCT-15; > 100 µM (inactive) in the test on NCI/ADR-RES; > 100 µM (inactive) with EKVX; > 100 µM (inactive) with MDA-MB-435. The GI50 in the test with K562 was > 100 µM (inactive); in the test with SN12C, > 100 µM (inactive); with HCC 2998, > 100 µM (inactive); with HL-60 it was > 100 µM (inactive); in the test with UACC-257, 61.8 µM (inactive); in the test with Hs-578T, > 100 µM (inactive). In addition, the GI50 in the test on SNB-75 was 11.8 µM (inactive).

As to `COC(=O)/C=c1/c2ccccc2n2c1c1ccccc1[n+]2C`, the GI50 is 2.67 µM (inactive) in the test with SK-OV-3; 4.18 µM (inactive) in the test on A498; 3.92 µM (inactive) in the test on ACHN; 3.54 µM (inactive) in the test on MDA-N; 5.38 µM (inactive) in the test with SF-268; 2.81 µM (inactive) in the test on PC-3. In addition, the GI50 in the test with KM12 is 2.71 µM (inactive); in the test on IGROV-1, 3.56 µM (inactive); in the test on HCT-15 it was 13.4 µM; in the test with NCI/ADR-RES, 31.3 µM (inactive); in the test with EKVX, 3.08 µM (inactive); with MDA-MB-435, 4.2 µM (inactive). For the same molecule, the GI50 was 3.64 µM (inactive) in the test on K562; 3.65 µM (inactive) in the test with SN12C; 2.35 µM (inactive) in the test on HCC 2998; 2.84 µM (inactive) in the test with HL-60; 2.58 µM (inactive) in the test with UACC-257; 2.64 µM (inactive) in the test with Hs-578T. Further, the GI50 in the test with SNB-75 was 3.69 µM (inactive).

Turning to `CC1C2CC(CC23OCC(CCl)O3)C1(C)C` (stereo not given), the GI50 with SK-OV-3, with A498, in the test with ACHN, in the test on MDA-N, in the test with SF-268 and in the test with PC-3 was > 100 µM (inactive) in each case. For the same molecule, the GI50 in the test on KM12 is > 100 µM (inactive); in the test on IGROV-1, > 100 µM (inactive); in the test with HCT-15 it was over 100 µM; in the test on NCI/ADR-RES, > 100 µM (inactive); with EKVX it was > 100 µM (inactive); with MDA-MB-435 it was > 100 µM (inactive). In addition, the GI50 with K562, in the test on SN12C, in the test on HCC 2998, in the test with HL-60, in the test on UACC-257 and in the test on Hs-578T was > 100 µM (inactive) throughout. Further, in the test with SNB-75, the GI50 is > 100 µM (inactive).

Regarding `O=c1c2ccccc2c(=O)n2n1-c1cccc(c1)CSSCc1cccc-2c1`, the GI50 in the test with SK-OV-3 is 52.8 µM (inactive); in the test on A498, > 10 µM (inactive); in the test on ACHN, > 10 µM (inactive); in the test with SF-268, > 10 µM (inactive); in the test with KM12 it was > 10 µM (inactive); in the test with DMS-273 it was > 10 µM (inactive). In addition, the GI50 with IGROV-1 is > 10 µM (inactive); with HCT-15, over 10 µM; in the test with EKVX, > 10 µM (inactive); in the test with K562, > 10 µM (inactive); with SN12C, > 10 µM (inactive); in the test with HCC 2998, > 10 µM (inactive). Further, the GI50 in the test with UACC-257 and in the test on SNB-75 was > 10 µM (inactive) in each case.

Turning to `COC(=O)c1cccc(OC)c1C#Cc1c(OC)cccc1OC`, the GI50 in the test with SK-OV-3 is > 100 µM (inactive); with A498, > 100 µM (inactive); with ACHN, > 100 µM (inactive); with MDA-N, 53.2 µM (inactive); in the test with SF-268, > 100 µM (inactive); in the test with PC-3, > 100 µM (inactive). The GI50 with KM12 was 69.7 µM (inactive); with IGROV-1, > 100 µM (inactive); in the test on HCT-15, over 100 µM; with NCI/ADR-RES it was > 100 µM (inactive); in the test with EKVX, > 100 µM (inactive); in the test on MDA-MB-435, 47.8 µM (inactive). Further, the GI50 in the test with K562, in the test with SN12C, in the test with HCC 2998, in the test on HL-60, in the test on UACC-257 and with Hs-578T was > 100 µM (inactive) in each case. Besides, the GI50 in the test with SNB-75 was > 100 µM (inactive).

In the case of `O=[N+]([O-])c1ccc2[nH]c(=S)[nH]c(=S)c2c1`, the GI50 in the test on SK-OV-3, with A498, with ACHN, with MDA-N, in the test with SF-268 and in the test on PC-3 was > 100 µM (inactive) throughout. Moreover, the GI50 in the test on KM12 was > 100 µM (inactive); in the test with IGROV-1, > 100 µM (inactive); in the test with HCT-15, over 100 µM; in the test with NCI/ADR-RES, > 100 µM (inactive); in the test on EKVX, > 100 µM (inactive); in the test with MDA-MB-435, > 100 µM (inactive). The GI50 in the test on K562, in the test with SN12C, in the test with HCC 2998, in the test with HL-60, in the test on UACC-257 and in the test with Hs-578T was > 100 µM (inactive) in each case. The GI50 with SNB-75 is 20.7 µM (inactive).

In the case of `Nc1ccc(C(=O)N/C(=C\C=C\c2ccco2)c2nc3c4c(ccc3[nH]2)C(=O)c2ccccc2C4=O)cc1`, the GI50 with SK-OV-3 was 21.7 µM (inactive); in the test on A498, 22.4 µM (inactive); in the test with ACHN, 10.8 µM (inactive); in the test on SF-268, 10.2 µM (inactive); with KM12, 13.6 µM (inactive); in the test with DMS-273, 29.5 µM (inactive). The GI50 in the test on IGROV-1 was 21.4 µM (inactive); in the test on HCT-15 it was 31.9 µM; with EKVX, 28.1 µM (inactive); with K562, 26.8 µM (inactive); with SN12C, 29.4 µM (inactive); in the test with HCC 2998, 44.9 µM (inactive). The results for the GI50 in the test on UACC-257 and in the test on SNB-75 were > 100 µM (inactive) and 14.2 µM (inactive), respectively.

For the origin of these results see ChEMBL document CHEMBL1201862, “PubChem BioAssay data set” (2004).
